Earlier results as cited in patent US20030118652A1 (priority 2001, published 2003).

Columns and labels:
[1] = (R)- versus (S)-bisoprolol
[2] = molecular target: cytochrome P450 isoform CYP2D6 (Homo sapiens, UniProt P10635); conditions: (R)- versus (S)-bisoprolol; stated as 'it is believed'
[3] = following administration of racemic bisoprolol; (S)- versus (R)-bisoprolol

Sequence of cytochrome P450 isoform CYP2D6 (P10635 whole entry, canonical isoform): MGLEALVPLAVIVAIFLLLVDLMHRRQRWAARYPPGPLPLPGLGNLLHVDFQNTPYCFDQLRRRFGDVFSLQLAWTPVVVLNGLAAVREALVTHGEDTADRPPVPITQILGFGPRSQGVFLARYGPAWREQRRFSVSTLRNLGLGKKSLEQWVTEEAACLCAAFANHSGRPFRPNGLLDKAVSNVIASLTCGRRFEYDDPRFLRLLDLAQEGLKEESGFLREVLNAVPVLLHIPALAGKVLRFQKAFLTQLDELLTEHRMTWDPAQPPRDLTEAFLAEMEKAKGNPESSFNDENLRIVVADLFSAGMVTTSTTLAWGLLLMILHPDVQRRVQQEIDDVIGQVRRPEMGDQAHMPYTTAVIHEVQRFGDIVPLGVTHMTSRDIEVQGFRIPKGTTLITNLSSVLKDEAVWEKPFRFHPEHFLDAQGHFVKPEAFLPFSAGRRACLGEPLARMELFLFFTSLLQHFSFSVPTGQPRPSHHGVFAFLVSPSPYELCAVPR

CC(C)NC[C@@H](O)COc1ccc(COCCOC(C)C)cc1 [(R)-bisoprolol]
rate of renal clearance [1]: greater
rate of oxidative metabolism by CYP2D6 [2]: greater rate

CC(C)NC[C@H](O)COc1ccc(COCCOC(C)C)cc1 [(S)-bisoprolol]
elimination half-life [3]: slightly higher

CC(C)NCC(O)COc1ccc(COCCOC(C)C)cc1 (racemic) [racemic bisoprolol, 1-[4-[[2-(1-methylethoxy)ethoxy]-methyl]phenoxy]-3-[(1-methylethyl)amino]-2-propanol]
side effects on the peripheral circulation (Bailliart et al. 1987): adverse side effects on the peripheral circulation
bronchoconstrictor side effects (Dorow et al. 1986): bronchoconstrictor effects, including wheeziness and breathlessness
effects on carbohydrate metabolism (Janka et al. 1986, patients with diabetes): effects on carbohydrate metabolism that are deleterious to patients with diabetes
